Data set [1] is described as follows: physchem.
A short description of data set [2]: physchem. The source holds these as a separate data set.
Data set [3] in a line: ΔH, ΔS and stability constant (Kc) of drug-HPβCD MS 0.6 complexes, effect of PVP (Example 17). In kind it is physicochemical. Particulars: for ΔH / ΔS: HPβCD MS 0.6 complex. Here is the method:
The effect of polyvinylpyrrolidone (PVP) on the enthalpy (ΔH) and the entropy (ΔS) of the stability constant (Kc) of the drug-cyclodextrin complex was determined.
An excess amount of the drug was added to water containing 0, 0.1, 0.25 or 0.5% (w/v) PVP and various amounts of HPβCD or HPαCD.

Data set [4] is described as follows: physchem. This is another data set of the same source.
The nature of data set [5]: physchem. This is another data set of the same source.
Data set [6] in a line: Effect of previously prepared solid HPβCD-polymer complexing agent on solubility (Example 13). The data set is classed as physicochemical. Here is the method:
The resultant solutions were heated in sealed containers to 120° C. and maintained at that temperature for 30 minutes, then were lyophilized. The solids thus obtained were ground with a mortar and pestle.
The solid cyclodextrin/polymer products were reconstituted with water to afford solutions containing 9.88% (w/v) HPβCD and 0.12% (w/v) PVP, 0.12% (w/v) or CMC 0.12% (w/v) HPMC. The solubilities (S) of three drugs in these solutions and in an aqueous solution containing 10% (w/v) HPβCD without added polymer were then determined as follows:
An excess amount of each drug was added to each of the four cyclodextrin solutions and the solutions were sonicated in an ultrasonic bath for 3 hours, then allowed to equilibrate for 60 hours at room temperature (23° C.). […] However, by separate preparation of the cyclodextrin/polymer complexing agent as illustrated here, one can readily avoid heating drugs which are unstable at elevated temperature.

Data set [7] is described as follows: Solubility of various drugs: effect of CMC in aqueous HPβCD solutions (Example 1). The conditions noted are these: for S4 /S3: 0.25% CMC + 10% HPβCD vs 10% HPβCD.
Data set [8] is described as follows: physchem. Particulars: aqueous 5% (w/v) γcd.
Data set [9] can be described thus: Effect of PVP on the solubilization of drugs in aqueous HPβCD solutions (Example 7). The conditions noted are these: for S4 /S3: with vs without 0.25% PVP.
For data set [10] the following is noted: 5% γCD.
The format of data set [11] is physicochemical. The text has this:
(2) The apparent stability constants of the drug -cyclodextrin complexes were increased when the polymers were present in the aqueous cyclodextrin complexation media in accord with the present invention. […];

Values after ≈ are worked out from the molar mass of the structure shown. Read-outs that look alike come from different tables or passages of the source.

Turning to `CC(=O)Nc1nnc(S(N)(=O)=O)s1` [Acetazolamide, acetazolamide], the solubility was found to be 3110 µg/mL in the data set “physchem [1]” (0.25% cmc + 10% hpbetacd); 840 µg/mL (≈ 3.78 mM) in “physchem [1]” (aqueous 0.25% cmc); 2520 µg/mL (≈ 11.3 mM) in “physchem [1]” (aqueous 10% hpbetacd); 700 µg/mL (≈ 3.15 mM) in “physchem [1]” (water); 3600 µg/mL (≈ 16.2 mM) in “physchem [4]” (0.10% cmc, 10% hpβcd); 3210 µg/mL (≈ 14.4 mM) in the data set “physchem [4]” (0.25% cmc, 10% hpβcd). The solubility in “physchem [4]” (0.50% cmc, 10% hpβcd) was found to be 3750 µg/mL (≈ 16.9 mM); in the data set “physchem [4]” (aqueous 10% hpβcd ms=0.9), 2520 µg/mL (≈ 11.3 mM); in “physchem [5]” (0.25% cmc in water), 840 µg/mL (≈ 3.78 mM); in “physchem [5]” (0.25% cmc, 10% hpbcd) it was 3110 µg/mL (≈ 14 mM); in “physchem [5]” (10% ethanol in water, organic solvent or mixture) it was 1110 µg/mL (≈ 4.99 mM); in “physchem [5]” (10% ethanol, 0.25% cmc, organic solvent or mixture) it was 750 µg/mL (≈ 3.37 mM). Moreover, the solubility in the data set “physchem [5]” (10% ethanol, 10% hpbcd, organic solvent or mixture) is 2190 µg/mL (≈ 9.85 mM); in the data set “physchem [5]” (10% hpbcd in water), 2520 µg/mL (≈ 11.3 mM); in “physchem [5]” (ethanol, cmc, hpbcd, organic solvent or mixture), 2500 µg/mL (≈ 11.2 mM); in “physchem [5]” (water), 700 µg/mL (≈ 3.15 mM). Further, the solubility at 72 h was 3660 µg/mL (≈ 16.5 mM) in the data set “physchem [2]” (0.25% pvp, 10% hpβcd); 2800 µg/mL (≈ 12.6 mM) in the data set “physchem [2]” (10% hpβcd ms 0.7); 1050 µg/mL (≈ 4.72 mM) in “physchem [2]” (aqueous 0.25% pvp); 700 µg/mL (≈ 3.15 mM) in the data set “physchem [2]” (water). Moreover, the ΔH in data set [3] (PVP 0.00% w/v) was -4.4 kcal/mol; in [3] (PVP 0.10% w/v) it was -6.17 kcal/mol; in data set [3] (PVP 0.25% w/v), -5.93 kcal/mol; in [3] (PVP 0.50% w/v), -6.17 kcal/mol. Further, the ΔS in data set [3] (PVP 0.00% w/v) is listed as -26.0 J mol^-1 K^-1; in [3] (PVP 0.10% w/v) it was -49.6 J mol^-1 K^-1; in [3] (PVP 0.25% w/v), -46.2 J mol^-1 K^-1; in data set [3] (PVP 0.50% w/v) it was -49.8 J mol^-1 K^-1. Further, the “increase in apparent stability constant” value in [3] (HPβCD complex, 0.25% PVP (w/v)) is reported as 13%.

`NC(=O)N1c2ccccc2C=Cc2ccccc21` [Carbamazepine, carbamazepine]: the solubility in [6] (9.88% hpbetacd + 0.12% cmc, 9.88% (w/v) HPβCD and 0.12% (w/v) CMC, read-out: S3 solubility) amounted to 6660 µg/mL; in data set [6] (9.88% hpbetacd + 0.12% hpmc, 9.88% (w/v) HPβCD and 0.12% (w/v) HPMC, read-out: S4 solubility) it was 9530 µg/mL; in data set [6] (9.88% hpbetacd + 0.12% pvp, 9.88% (w/v) HPβCD and 0.12% (w/v) PVP, read-out: S2 solubility) it was 9800 µg/mL; in data set [6] (10% hpbetacd, 10% (w/v) HPβCD, read-out: S1 solubility), 7000 µg/mL (≈ 29.6 mM); in data set [7] (0.25% cmc + 10% hpbetacd), 9200 µg/mL; in [7] (aqueous 0.25% cmc) it was 200 µg/mL (≈ 0.846 mM). In addition, the solubility was 7000 µg/mL (≈ 29.6 mM) in [7] (aqueous 10% hpbetacd), 110 µg/mL (≈ 0.466 mM) in data set [7] (water) and 490 µg/mL (≈ 2.07 mM) in “physchem [8]”. In addition, the “S4 /S3” value in data set [7] is reported as 1.31; in data set [9], 1.17. In addition, the solubility at 72 h in [9] (0.25% pvp, 10% hpβcd) is 7500 µg/mL (≈ 31.7 mM); in data set [9] (10% hpβcd ms 0.7), 6430 µg/mL (≈ 27.2 mM); in data set [9] (aqueous 0.25% pvp) it was 310 µg/mL (≈ 1.31 mM); in [9] (water) it was 110 µg/mL (≈ 0.466 mM). For the same molecule, the “Scp /Sco” value in [10] (CMC) turned out to be 1.33; in data set [10] (HPMC), 2.27; in data set [10] (PVP), 2.18.

On to `C[C@@H]1C[C@H]2[C@@H]3CCC4=CC(=O)C=C[C@]4(C)[C@@]3(F)[C@@H](O)C[C@]2(C)[C@@]1(O)C(=O)CO` [Dexamethasone, dexamethasone], for which the “S4 /S3” value turned out to be 1.04 in data set [7] and 1.06 in data set [9]. Further, the solubility in data set [7] (0.25% cmc + 10% hpbetacd) was determined as 8750 µg/mL; in [7] (aqueous 0.25% cmc) it was 330 µg/mL (≈ 0.841 mM); in data set [7] (aqueous 10% hpbetacd), 8430 µg/mL (≈ 21.5 mM); in [7] (water), 260 µg/mL (≈ 0.662 mM). The solubility at 72 h in data set [9] (0.25% pvp, 10% hpβcd) came out at 8000 µg/mL (≈ 20.4 mM); in data set [9] (10% hpβcd ms 0.7) it was 7530 µg/mL (≈ 19.2 mM); in data set [9] (aqueous 0.25% pvp) it was 330 µg/mL (≈ 0.841 mM); in [9] (water), 260 µg/mL (≈ 0.662 mM). The “increase in apparent stability constant” value in [11] is given as “about 26%”.

The values above are taken from patent publication US5472954A, “Cyclodextrin complexation” (priority 1993, dated 1995).
